This test deals with T1, FAAH (Homo sapiens, UniProt O00519).
T1 construct: FAAH activity was assayed in the respective homogenates described herein (Rat brain, Mouse brain or Human brain); tissue Analytical Biological Services (ABS), Inc; host or cells: human brain cortex membrane homogenate
T1 sequence (O00519 1-579): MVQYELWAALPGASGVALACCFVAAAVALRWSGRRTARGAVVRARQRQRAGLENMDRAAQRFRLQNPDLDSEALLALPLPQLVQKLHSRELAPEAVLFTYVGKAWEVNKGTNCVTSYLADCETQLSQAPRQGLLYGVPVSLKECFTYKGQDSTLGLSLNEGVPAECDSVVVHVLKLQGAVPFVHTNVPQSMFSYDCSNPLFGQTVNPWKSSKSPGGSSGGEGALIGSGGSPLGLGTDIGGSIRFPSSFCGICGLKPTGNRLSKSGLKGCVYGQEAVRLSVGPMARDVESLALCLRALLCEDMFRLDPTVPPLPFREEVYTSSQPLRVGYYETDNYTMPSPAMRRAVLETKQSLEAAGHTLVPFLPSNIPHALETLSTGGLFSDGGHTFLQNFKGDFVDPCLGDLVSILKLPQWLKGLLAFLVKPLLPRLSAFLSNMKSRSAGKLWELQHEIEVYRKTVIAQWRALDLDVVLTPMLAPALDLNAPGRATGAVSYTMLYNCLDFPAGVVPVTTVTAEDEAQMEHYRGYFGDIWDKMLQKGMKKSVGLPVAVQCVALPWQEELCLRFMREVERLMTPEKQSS
As to the kind of experiment: FAAH inhibition, human brain membrane homogenate assay. It counts as biochemical. Conditions: average; FAAH extracted from human brain homogenate; read-out: Human brain FAAH Extract IC50. As to the method:
About 10 g of frozen normal human brain cortex tissue was obtained (e.g., from Analytical Biological Services (ABS), Inc. (Wilmington, Del.)). The brain tissue was thawed and transferred to a large ceramic mortar on ice. 50 mL of ice-cold “homogenization buffer” (20 mM HEPES buffer, pH 7.0, with 1 mM MgCl2) was added to the mortar and the tissue was homogenized with a pestle. The homogenate was centrifuged at 36,500 g for 20 minutes at 4° C. The supernatants were discarded and the pellets were re-suspended in homogenization buffer and centrifuged as before. The supernatants were again discarded and the pellets were re-suspended in 30 mL homogenization buffer and incubated in a 37° C. water bath for 20 minutes. The homogenate was then centrifuged as before. The supernatant was discarded and the membrane pellets were re-suspended in 30 mL “resuspension buffer” (50 mM Tris-HCl buffer, pH 7.4, containing 1 mM EDTA and 3 mM MgCl2). A Bradford Protein assay was performed to determine protein concentration. The protein was aliquotted into screw cap Cryo tubes each containing ˜200 μL, flash frozen in liquid nitrogen and stored at −80° C. until used for the assay.
FAAH activity was assayed in the respective homogenates described herein (Rat brain, Mouse brain or Human brain) for certain exemplary substrate compounds using a modification of the method of Omeir et al. (1995 Life Sci 56:1999) and Fowler et al. (1997 J. Pharmacol Exp Ther 283:729). For assay of FAAH activity in rat brain membrane (RBM) homogenates, RBM homogenates (7 μg protein in 20 μL final volume of 10 mM Tris pH 6.5) were mixed with 180 μL of a mixture of the following: 2.0 μM unlabelled anandamide, 0.03 μCi radio labeled anandamide [ethanolamine 1-^3H] (40-60 Cis/mmol, product number ART-626, American Radiolabeled Chemicals, St. Louis, Mo.), 1 mg/mL Bovine Serum Albumin (fatty acid-free BSA, electrophoresis grade, Sigma, St. Louis, Mo.), 10 mM Tris-HCl (pH 6.5), and 1 mM EDTA in the presence and absence of test compounds (vehicle was DMSO at a final concentration of 1%) and incubated for 10 minutes at 37° C. Samples were placed on ice to terminate the reactions.
^3H-ethanolamine product and un-reacted ^3H-anandamide substrate were then separated either: (1) by using chloroform/methanol extraction or (2) by passing the reaction mixture through a glass fiber filter containing activated charcoal. Samples were extracted with chloroform/methanol by adding 0.4 mL of chloroform/methanol (1:1 v/v), vigorously mixing the samples, and separating the aqueous and organic phases by centrifugation. Radioactivity (corresponding to FAAH-catalyzed breakdown of ^3H-anandamide) found in aliquots (0.2 mL) of the aqueous phase was determined by liquid scintillation counting with quench correction. IC50 values were determined as described by Jonsson et al. (2001 Br. J. Pharmacol. 133:1263). Alternatively, reactions were purified using a modification of the solid-phase extraction method described by Wilson et al (2003 Anal. Biochem. 318:270). This method was modified as follows: after reactions were incubated at 37° C. for 10 minutes and chilled on ice, the reaction mixtures were acidified by adding 10 μL of sodium phosphate solution [0.5M (pH 2.0)]. Next, 90 μL aliquots of the acidified reaction mixtures were applied to activated charcoal (that had been previously washed with methanol as described by Wilson et al. (supra)) containing 80 μL of water on top of a glass fiber filter, centrifuged, and the radioactivity in the eluate was counted as described previously by Wilson et al. (supra).
Table 1 provides activity data for certain compounds tested for inhibition of FAAH using the FAAH rat, mouse and human brain homogenate assays. […]

SMILES strings stand for the structures. pIC50: −log10 of the molar value.

The term pIC50 denotes the negative decadic logarithm of the IC50, by convention in mol/L.

On to `COc1cc(NC(=O)C(=O)c2cc(C)n(Cc3ccc(Cl)cc3)c2C)ccn1` [Compound I-01, 2-(1-(4-chlorobenzyl)-2,5-dimethyl-1H-pyrrol-3-yl)-N-(2-methoxypyridin-4-yl)-2-oxoacetamide], for which the negative logarithm of the IC50 (pIC50) was 6.27.

For the molecule `Cc1c(C(=O)C(=O)Nc2ccncc2)c2cc(Cl)sc2n1Cc1ccc(Cl)cc1` [Compound I-02, 2-(2-chloro-6-(4-chlorobenzyl)-5-methyl-6H-thieno[2,3-b]pyrrol-4-yl)-2-oxo-N-(pyridin-4-yl)acetamide], the pIC50 is 7.01.

In the case of `COc1cc(NC(=O)C(=O)c2c(C)n(Cc3ccc(Cl)cc3)c3sc(Cl)cc23)ccn1` [Compound I-03, 2-(2-chloro-6-(4-chlorobenzyl)-5-methyl-6H-thieno[2,3-b]pyrrol-4-yl)-N-(2-methoxypyridin-4-yl)-2-oxoacetamide], the negative logarithm of the IC50 (pIC50) is 7.03.

On to `Cc1cc2c(s1)c(C(=O)C(=O)Nc1ccncc1)c(C)n2Cc1ccc(Cl)cc1` [Compound I-04, 2-(4-(4-chlorobenzyl)-2,5-dimethyl-4H-thieno[3,2-b]pyrrol-6-yl)-2-oxo-N-(pyridin-4-yl)acetamide], for which the pIC50 was 7.29.

For `COc1cc(NC(=O)C(=O)c2c(C)n(Cc3ccc(Cl)cc3)c3cc(C)sc23)ccn1` [Compound I-05, 2-(4-(4-chlorobenzyl)-2,5-dimethyl-4H-thieno[3,2-b]pyrrol-6-yl)-N-(2-methoxypyridin-4-yl)-2-oxoacetamide], the pIC50 is 8.40.

With `Cc1c(C(=O)C(=O)Nc2cccc(Cl)c2)c2sccc2n1Cc1ccc(Cl)cc1` [Compound I-06, 2-(4-(4-chlorobenzyl)-5-methyl-4H-thieno[3,2-b]pyrrol-6-yl)-N-(3-chlorophenyl)-2-oxoacetamide], the pIC50 was 5.82.

In the case of `COc1cc(NC(=O)C(=O)c2c(C)n(Cc3ccc(Cl)cc3)c3ccsc23)ccn1` [Compound I-07, 2-(4-(4-chlorobenzyl)-5-methyl-4H-thieno[3,2-b]pyrrol-6-yl)-N-(2-methoxypyridin-4-yl)-2-oxoacetamide], the negative-log IC50 (pIC50) is 7.74.

As for `COc1cc(NC(=O)C(=O)c2cc(C)n(Cc3ccc(F)cc3)c2C)ccn1` [Compound I-17, 2-(1-(4-fluorobenzyl)-2,5-dimethyl-1H-pyrrol-3-yl)-N-(2-methoxypyridin-4-yl)-2-oxoacetamide], the pIC50 was 5.91.

As to `COc1cc(NC(=O)C(=O)c2cc(-c3ccccc3)n(Cc3ccc(Cl)cc3)c2C)ccn1` [Compound I-27, 2-(1-(4-chlorobenzyl)-2-methyl-5-phenyl-1H-pyrrol-3-yl)-N-(2-methoxypyridin-4-yl)-2-oxoacetamide], the negative-log IC50 (pIC50) was less than 4.30.

For the molecule `Cc1cc(C(=O)C(=O)Nc2ccnc(Cl)c2)c(C)n1Cc1ccc(Cl)cc1` [Compound I-28, 2-(1-(4-chlorobenzyl)-2,5-dimethyl-1H-pyrrol-3-yl)-N-(2-chloropyridin-4-yl)-2-oxoacetamide], the pIC50 was 6.05.

As to `Cc1cc(C(=O)C(=O)Nc2ccncc2)c(C)n1Cc1ccc(Cl)cc1` [Compound I-30, 2-(1-(4-chlorobenzyl)-2,5-dimethyl-1H-pyrrol-3-yl)-2-oxo-N-(pyridin-4-yl)acetamide], the pIC50 was 5.47.

As to `Cc1cc(C(=O)C(=O)Nc2cccnc2)c(C)n1Cc1ccc(Cl)cc1` [Compound I-31, 2-(1-(4-chlorobenzyl)-2,5-dimethyl-1H-pyrrol-3-yl)-2-oxo-N-(pyridin-3-yl)acetamide], the pIC50 is 5.49.

As for `Cc1cc(C(=O)C(=O)Nc2ccccc2)c(C)n1Cc1ccc(Cl)cc1` [Compound I-32, 2-(1-(4-chlorobenzyl)-2,5-dimethyl-1H-pyrrol-3-yl)-2-oxo-N-phenylacetamide], the pIC50 was less than 5.30.
